{
  "source": "paper PMC8200345",
  "about": "(American Journal of Clinical Dermatology, 2021)",
  "key": {"[1]": {"details": "phase III studies combined"}, "[2]": {"details": "any of the three studies in atopic dermatitis"}, "[3]": {"details": "human, in vivo"}, "[4]": {"details": "cited from earlier work"}, "Phase II study": {"assay": "Phase II study", "assay_type": "in vivo, human (adult patients with atopic dermatitis)", "details": "Phase II SLR (QD only); log-transformed Ctrough week 4 vs API dose"}, "[5]": {"details": "cited from earlier work", "remark": "listed apart in the source"}},
  "note": "Read-outs that look alike come from different tables or passages of the source.",
  "data": [
    {"smiles": "N#CC[C@H](C1CCCC1)n1cc(-c2ncnc3[nH]ccc23)cn1", "note": "[ruxolitinib]", "values": [
      {"measurement": "Correlation between ruxolitinib Css quartiles and absolute neutrophil count", "setting": "[1]", "value": "no correlation"},
      {"measurement": "Changes in hematological parameters", "setting": "[2]", "value": "no clinically relevant changes"},
      {"measurement": "Dose-PK model: exponent on API dose (regression slope), estimate", "setting": "[3]", "value": 0.801},
      {"measurement": "Dose-PK model: exponent on API dose, estimate", "setting": "[3]", "value": 0.462},
      {"measurement": "Dose-PK model: exponent on baseline IGA 3, estimate", "setting": "[3]", "value": 0.322},
      {"measurement": "Dose-PK model: exponent on region = Europe, estimate", "setting": "[3]", "value": 0.782},
      {"measurement": "Mean Css as percent of the whole blood IC50 value", "setting": "[3]", "value": "< 15", "unit": "%"},
      {"measurement": "Average Css", "setting": "[4]; 25 mg BID oral", "value": "~ 350 nM"},
      {"measurement": "Maximum tolerated dose", "setting": "[4]; oral, patients with myelofibrosis", "value": 25, "unit": "mg BID"},
      {"measurement": "Dose-PK model: exponent on API dose (regression slope), estimate", "setting": "Phase II study", "value": 0.805},
      {"measurement": "Bioavailability after oral dosing", "setting": "[5]", "value": "near-complete"}
    ]}
  ]
}
